Reference: US20120122716A1, “CELL LINE DERIVED FROM THE EPITHELIAL LINING OF THE HUMAN ENDOLYMPHATIC SAC IN THE INNER EAR” (priority 2010, published 2012)

Legend:
ES cells = assay: Water permeability of ES cells (fluorescence-quenching assay); assay type: cell-based; conditions: immortalized human ES epithelial cells
Protocol: For water permeability measurement, an ES cell line is plated in 96-well clear bottom of black-walled microplates (Costar) at a density of 20000 cells per well in F-12 Ham's medium supplemented with 10% FBS and 0.5 mg/mL G418. After incubation at 37° C. in an atmosphere containing 5% CO2 with 90% humidity for 18 h, the cells in 96-well plates are washed twice in PBS buffer (200 μL/wash), leaving 100 μL PBS after the last wash. Measurement is performed on a FLUOstar Optima plate reader (BMG Technology) equipped with syringe pumps and excitation and emission filters. Cells in each well of the plate are assayed individually for osmotically driven (e.g., aquaporin-mediated), water influx across the plasma membrane that dilutes the cytoplasmic Cl^− by recording fluorescence increase continuously (0.2 s per point) for 2 s (baseline) and then for 21 s (water transport into the cells) after rapid injection (<1 s) of 100 μL distilled water. Water permeability is expressed as half time (t1/2) from water injection to the point when the cytoplasmic fluorescence reaches the maximum. A smaller t1/2 represents a higher water permeability.
The inner ear can function properly only if the chemical equilibrium and volume of inner ear fluids are maintained. The disruption of inner ear homeostasis results in many inner ear disorders such as Meniere's disease. […]

AQP2 = assay: RT-PCR analysis of AQP2 expression in ES cells; assay type: cell-based; conditions: immortalized human ES epithelial cells
Excerpt: The inner ear can function properly only if the chemical equilibrium and volume of inner ear fluids are maintained. The disruption of inner ear homeostasis results in many inner ear disorders such as Meniere's disease. The endolymphatic sac (ES) is believed to be involved in homeostasis of endolymph such as ion and fluid regulation. Aquaporins (AQPs) function like a molecular water valve, allowing water to move along a specific direction. AQP1, 2, 3, 4, and 6 are all found in the ES and may have an important role in endolymph fluid homeostasis. […] Taken together, our findings indicate that ES epithelial cells are invovled in homeostasis of endolymph through regulation of AQP2 and AQP3. We believe that our ES cell line will provide an in vitro model enabling us to better understand the molecular pathogeneis of Meniere's disease.

HESC-1 cells = assay: Secretion of viscous substance by HESC-1 cells; assay type: cell-based, human
Excerpt: For example, viscosity of the substance derived from the cells can be measured using an Ubbelohde viscometer (VWR) after collection of the supernatant. Osmolality of the substance can be measured using a freezing point osmometer (Precision Systems, Natick, MA). To determine the factors influencing secretion of osmotically active and viscous substances, the cells can be cultured using a serum-free medium with deficiency of a specific factor such as retinoic acid, hydrocortisone and triiodothronine.
(§1) Regulatory mechanisms involved in secretion and biological functions of these molecules can be determined. The HESC-1 cells provides a basis for an in vitro model for the studies of secretory function of the ES.

[1] = system: mucin core proteins and hyaluronic acid synthases; assay: qRT-PCR analysis of mucin core proteins and hyaluronic acid synthases in HESC-1 cells; assay type: cell-based, human
Excerpt: We identified hyaluronic acid among the osmotically active substances derived from our ES cell line. Three isoforms of hyaluronic acid synthases (HASs) are identified in humans. For example, transcriptional regulation of each HAS can be determined using real-time quantitative RT-PCR analysis after extraction of total RNAs from the ES cell line. Protein levels of each HAS can be measured using immunobloting after extraction of total proteins from the ES cell line. To determine the factors regulating each HAS, the cells can be cultured using a serum-free medium with deficiency of a specific factor such as retinoic acid, hydrocortisone and triiodothronine.
as §1

Row | Molecule | water permeability of ES cells upon exposure (ES cells) | AQP2 expression (RT-PCR) (AQP2) | secretion of viscous substance (HESC-1 cells) | expression of mucin core proteins and hyaluronic acid synthases (qRT-PCR) [1]
1 | NC(=O)CC[C@@H]1NC(=O)[C@H](Cc2ccccc2)NC(=O)[C@H](Cc2ccc(O)cc2)NC(=O)[C@@H](N)CSSC[C@@H](C(=O)N2CCC[C@H]2C(=O)N[C@@H](CCCN=C(N)N)C(=O)NCC(N)=O)NC(=O)[C@H](CC(N)=O)NC1=O [vasopressin] | affected | up-regulation | – | –
2 | EGF: human epidermal growth factor (EGF) (NSDSECPLSHDGYCLHDGVCMYIEALDKYACNCVVGYIGERCQYRDLKWWELR; UniProt P01133 971-1023, looked up) | – | – | secrete viscous substance | up-regulate
